Reference: US6440938B1, “Prevention and/or treatment of allergic conditions” (The Victoria University of Manchester, priority 1997, dated 2002)

How the values were obtained:
MDCK cell monolayers = test: Mannitol permeability of MDCK cell monolayers exposed to HDM proteinase fractions; assay type: cell-based, canine; details: for inhibition of the action of the serine proteinase fraction on mannitol permeability: AEBSF 100μM, fraction 127 azocoll units ml^−1, 18 h (FIG. 3b); for effect of inhibitor alone on intrinsic epithelial permeability: inhibitor per se, no proteinase fraction (FIG. 3)
Experimental: (§1) Measurements of mannitol clearance were performed on confluent cell monolayers that had been propagated on 0.4μm pore diameter Costar Transwell™ inserts coated with an ungelled ultra-thin undercoat of Madrigel. Coating was achieved by addition of 250μl aliquots of Matrigel (diluted 1:500 v/v in EMEM) to the interior of the insert followed by ambient incubation for 60 min under aseptic conditions. The solution was then aspirated and the inserts gently washed with medium before the addition of a confluent density of cell suspension.
(§2) Cells (2-5×10^5 per cm^2 growth area) were plated onto Matrigel-coated inserts. We use the term ‘insert’ as meaning the filter unit containing the cells and the term ‘well’ as referring to the cavities of the tissue culture plate. To monitor growth and integrity, inserts were taken at random, washed gently in PBS and stained under subdued illumination with acridine orange and ethidium bromide (1mg ml^−1 each in PBS). Inserts were examined by fluorescence microscopy and were used only when confluence with high viability was attained.
(§3) At confluence, the medium was aspirated from the wells and replaced with serum- and bicarbonate-free EMEM buffered with 20 mM HEPES and containing 2 mM L-glutamine. The medium from the inserts was then gently removed and replaced with 300μl of serum-free EMEM containing [^14C]-mannitol (1μCi ml^−1 and 1 mg ml^−1 unlabelled mannitol in HEPES-buffered medium). The Transwell™ plates were then equilibrated for 30 min at 37° C. on a Luckham R100 orbital shaker. Triplicate 100μl aliquots of the unused labelled mannitol solution were sampled and their radioactivity content determined by liquid scintillation spectrometry (Beckman LS6000IC) following addition of 5 ml Opti-Fluor.
(§4) After the equilibration period, the inserts were placed in fresh wells containing 1 ml of serum-free HEPES buffered EMEM and incubated at 37° C. with continuous gentle shaking. The medium from the original wells was retained and its radioactivity content determined after the addition of 10 ml Opti-Fluor. […] At timed intervals, 20μl aliquots of the basolateral bathing fluid were removed and the amount of ^14C mannitol quantified as described above for the calculation of clearance volume.
Clearance estimates were made over 3-5h and were calculated according to the relationship: [formula]
(§5) Under conditions where diffusion is the sole means of transepithelial movement of the solute, dVprobe/dt approximates closely to the permeability-surface area product thus allowing estimation of the permeability of mannitol in the composite system of cells, filter, unstirred layers and protein coating (Pt). Epithelial permeability can be calculated from the measured variable by considering the Matrigel-coated filter and unstirred layers as a system of series permeabilities. Thus: [formula]
Unstirred layer thicknesses are independent of membrane permeability under ideal conditions thus P3 in equations (3) and (4) are identical. Subtracting equations (2) and (3) thus permits the calculation of the permeability of the epithelial monolayer (5). [formula]
Analysis of variance was performed after log transformation of the permeability data and probability values for the different treatments assigned using the least significant difference test. Data are presented as the geometric mean values with indicated standard errors of n experimental observations. Probability levels of P<0.05 were considered statistically significant.

Calu-3 cell monolayers = test: Mannitol permeability of Calu-3 cell monolayers exposed to HDM proteinase fractions; assay type: cell-based, human; details: for inhibition of the permeability change caused by the serine proteinase fraction: E-64 10μM, fraction 94 azocoll units ml^−1, 18 h (FIG. 4b); for mannitol permeability: P<0.05, n=5
Experimental: as §1, §2, §3, §4
Paracellular permeability of mannitol was determined in accordance with the procedure described in our copending U.K. Patent Application No. 9715058 and was calculated from measurements of clearance volume at defined time points. Clearance estimates were made over 3-5h and were calculated according to the relationship: [formula]
as §5
Unstirred layer thicknesses are independent of membrane permeability under ideal conditions thus P3 in equations (3) and (4) are identical. Subtracting equations (2) and (3) thus permits the calculation of the permeability of the epithelial monolayer (5). [formula] […]

[1] = tested on: intercellular junctions of MDCK cells (ZO-1, desmoplakin); test: Immunocytochemical visualization of intercellular junctions (ZO-1, desmoplakin); assay type: cell-based, canine
Experimental: To study the effects of proteinases and inhibitors on intercellular junctions, MDCK cells were cultured on coverslips and treated with the appropriate proteinase and/or inhibitor for the desired time period. The cells were fixed in ice-cold methanol before binding of rat anti-ZO-1 (mAb R40.76) (Stevenson et al., 1986; Anderson et al., 1988) and mouse anti-desmoplakin (mAb 11-5F) (Parrish et al., 1987). Indirect fluorescent antibody staining was performed using FITC- and TRITC-conjugated second antibodies. Microscopy was carried out using a Zeiss Axiovert microscope with x40 magnification oil immersion Fluar objective. Specimens were illuminated using excitation and emission filter sets for FITC and TRITC. Cells were photographed as described above.

Calu-3 cells = test: DNA fragmentation (agarose gel), Calu-3 cells; assay type: cell-based, human; details: BB-250 5μM, E-64 10μM; for inhibition of cysteine proteinase fraction-induced DNA fragmentation: fraction 80 azocoll units ml^−1 (FIG. 7b)
Experimental: Cells were plated on 60×15 mm petri dishes and grown for 2-4 days in serum-containing EMEM under tissue culture conditions in a 5% CO2 atmosphere. Cells were then exposed to treatments in serum-free EMEM containing 20 mM HEPES whilst under aerobic incubation at 37° C. At defined time points, cells were harvested with a scraper and pooled with detached cells in the supernatant. Cells were centrifuged at 550×g for 5 min and their DNA extracted (Nucleon II, Scotlab, Coatbridge, Stratchclyde). The extracted DNA was resuspended in 100μl TE buffer (10 mM Tris-HCL and 1 mM Na2EDTA) overnight at room temperature and its purity determined spectrophotometrically. Equal amounts of DNA were applied in 4:1 ratio with sample buffer (0.25% bromophenol blue and 40% w/v sucrose in water) to each lane of 2% (w/v) agarose gels and electrophoresis performed at 50V for 2-3h in TAE buffer (0.04M Tris-acetate and 0.001M EDTA). Bands of DNA in the gels (which had ethidium bromide incorporated into them) were visualized by ultra-violet light.

Der p 1 = target: T1, Der p 1 (Dermatophagoides pteronyssinus, UniProt P08176); details: literature (Herbert et al. 1995; Hewitt et al. 1995, 1997); cited from earlier work
T1 sequence (P08176 99-320): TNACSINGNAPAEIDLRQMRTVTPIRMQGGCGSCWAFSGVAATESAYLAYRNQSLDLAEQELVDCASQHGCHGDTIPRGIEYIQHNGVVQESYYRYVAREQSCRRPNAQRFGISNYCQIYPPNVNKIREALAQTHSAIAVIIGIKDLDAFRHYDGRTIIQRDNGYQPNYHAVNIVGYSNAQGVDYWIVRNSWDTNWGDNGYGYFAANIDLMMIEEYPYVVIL

[2] = target: T2, HDM cysteine proteinase fraction (50% precipitate) (Dermatophagoides pteronyssinus, UniProt P08176); test: Enzyme degradation of chromogenic substrates by the 50% ammonium sulphate precipitate; assay type: biochemical, D. pteronyssinus; details: data not shown
T2 construct: tissue Commonwealth Serum Laboratory, Parkville, Australia; host or cells: spent culture medium of D. pteronyssinus, 50% saturated ammonium sulphate pellet
T2 sequence (P08176 99-320): T1 sequence (P08176 99-320)
Text: HDM proteinase allergens have not yet been prepared in catalytically competent form by recombinant cellular expression of the mature enzyme protein. For convenience, and to enable future large scale screening of potential inhibitors in the absence of catalytically active recombinant proteins, we sought to separate the cysteine and serine proteinase activity by simple biochemical fractionation of spent medium in which HDM had been grown. During culture the HDM release allergens into the medium resulting in the accumulation of proteins suitable for purification. Spent medium from cultures of D. pteronyssinus (Commonwealth Serum Laboratory, Parkville, Australia) was dissolved in 5 volumes of phosphate buffered saline and then centrifuged at 48,400×g and 4° C. for 20 min. Ammonium sulphate was added gradually to the stirred supernatant at 4° C. to achieve a 50% saturated solution. After centrifugation (48,400×g, 20 min, 4° C.) the pellet, found by enzymatic assay to be enriched in cysteine proteinase activity, was redissolved in a minimum volume of distilled water. […] Protein content of the extracts was measured using the […] technique with serum albumin as standard (Smith et al, 1985). Proteinase activity was measured using the Azocoll degradation assay as described elsewhere (Herbert et al., 1995; Chavira et al., 1984). […]

ICE/ced-3 caspase family = details: literature; cited from earlier work

Cl.NCCc1ccc(S(=O)(=O)F)cc1 [AEBSF, 4-(2-aminoethyl)-benzenesulphonyl fluoride hydrochloride]
inhibition of the action of the serine proteinase fraction on mannitol permeability (MDCK cell monolayers): inhibited | effect of inhibitor alone on intrinsic epithelial permeability (MDCK cell monolayers): Neither inhibitor per se exerted any observable effect | inhibition of the action of the cysteine proteinase fraction on mannitol permeability (Calu-3 cell monolayers; Calu-3, AEBSF 100μM, fraction 80 azocoll units ml^−1, 18 h (FIG. 4a)): failed to inhibit | inhibition of the permeability change caused by the serine proteinase fraction (Calu-3 cell monolayers; Calu-3): ablated | mannitol permeability (Calu-3 cell monolayers; Calu-3 treated with serine proteinase fraction plus AEBSF): 10.20±0.01 ×10−6 cm s^−1 | inhibition of serine proteinase fraction-dependent changes in ZO-1/desmoplakin staining ([1]; AEBSF 100μM, fraction 94 azocoll units ml^−1): inhibited

CNC(=O)[C@H](Cc1ccccc1)NC(=O)[C@H](CC(C)C)[C@H](CS(=O)(=O)c1cccs1)C(=O)NO [BB-250, [4-(N-hydroxyamino)-2R-isobutyl-3S-(thiophen-2-yl-sulphonylmethyl)succinyl]-L-phenylalanine-N-methylamide]
inhibition of cysteine proteinase fraction-induced DNA fragmentation (Calu-3 cells): attenuated | inhibition of serine proteinase fraction-induced DNA fragmentation (Calu-3 cells; fraction 94 azocoll units ml^−1 (FIG. 7b)): attenuated

N=C(N)c1ccc(CS(=O)(=O)F)cc1 [APMSF]
inhibition of Der p 1 activity / effects (Der p 1): reported to be inhibited

CC(C)C[C@H](NC(=O)[C@H]1O[C@@H]1C(=O)O)C(=O)NCCCCN=C(N)N (relative stereo) [E-64, L-trans-epoxysuccinyl-leucylamido-(4-guanidino)-butane]
inhibition of Der p 1 activity / effects (Der p 1): sensitive to inhibition | inhibition of cysteine proteinase fraction-induced DNA fragmentation (Calu-3 cells): inhibited | catalytic activity of the 50% precipitate [2]: inhibitable | inhibition of the effect of the cysteine proteinase fraction on mannitol permeability (MDCK cell monolayers; E-64 10μM, fraction 80 azocoll units ml^−1, 18 h (FIG. 3a)): attenuated | effect of inhibitor alone on intrinsic epithelial permeability (MDCK cell monolayers): no observable effect | inhibition of the permeability change caused by the serine proteinase fraction (Calu-3 cell monolayers; Calu-3): did not inhibit | mannitol permeability (Calu-3 cell monolayers; Calu-3 treated with cysteine proteinase fraction plus E-64): 4.84±0.32 ×10^−6 cm s^−1 | inhibition of cysteine proteinase fraction-dependent changes in ZO-1/desmoplakin staining ([1]; E-64 10μM, fraction 80 azocoll units ml^−1): inhibited | sensitivity of ICE/ced-3 caspases to the inhibitor (ICE/ced-3 caspase family): insensitive

B1: SBTI: serine proteinase inhibitor; abbreviation not expanded in the patent (protein, UniProt P01070 25-205, looked up)
Trypsin inhibitor A: DFVLDNEGNPLENGGTYYILSDITAFGGIRAAPTGNERCPLTVVQSRNELDKGIGTIISSPYRIRFIAEGHPLSLKFDSFAVIMLCVGIPTEWSVVEDLPEGPAVKIGENKDAMDGWFRLERVSDDEFNNYKLVFCPQQAEDDKCGDIGISIDHDDGTRRLVVSKNKPLVVQFQKLDKESL
inhibition of the action of the serine proteinase fraction on mannitol permeability (MDCK cell monolayers): less effectively | effect of inhibitor alone on intrinsic epithelial permeability (MDCK cell monolayers): Neither inhibitor per se exerted any observable effect
